Results on one molecule are retold here after US11786507B2, “Methods of treating HIV-associated neurological disorders (HAND)” (priority 2020, dated 2023).

The subject of one assay is MAPK signaling pathways. The experiment in a line: Western blotting of total and phosphorylated p38, JNK, ERK in cortex and hippocampus. Particulars: PAM 15 mg/kg/day s.c. It is filed as in vivo, mouse. The source says: (§1) Doxycycline (Dox)-inducible and astrocyte-specific HIV-1 Tat-transgenic mice (iTat) were generated as previously described.^38 Wild-type (Wt, C57BL/6) and α7 nAChR knockout mice (α7^−/−, B6.129S7-Chrna^7tm1Ba/J) were purchased from the Jackson Laboratory (Bar Harbor, ME). All the animal procedures were approved by the Institutional Animal Care and Use Committee. Mice were housed with a 12-hour light and 12-hour dark photoperiod and provided water and food ad libitum. α7^−/− iTat mice were generated by cross breeding iTat mice with α7^−/− mice. α7^−/− genotyping was slightly modified with the JumpStart™ Taq DNA Polymerase-based PCR (JumpStart™ Taq DNA Polymerase, Sigma, catalog #D9307). […] Mice of 10-14 weeks old with body weights of 20-35 grams were fed with Dox-containing diet (0.625 g/kg, Envigo, catalog #TD.01306) as stated.
A RIPA buffer (50 mM Tris.HCl, pH 8.0, 280 mM NaCl, 0.5% NP-40, 1% C24H39NaO4, 0.2 mM EDTA, 2 mM EGTA and 10% glycerol) supplemented with protease inhibitors (Millipore-Sigma, catalog #S8830) and phosphatase inhibitors (Millipore-Sigma, catalog #4906845001) was used to lyse the brain tissues and cultured cells with brief sonication on ice. Protein concentrations of the lysates were determined using a Bio-Rad DC protein assay kit (Bio-Rad, catalog #5000111). Lysates were denatured in the SDS-PAGE loading buffer at 100° C. for 10 min, then electrophoretically separated by 8-15% SDS-PAGE, blotted onto 0.45 μm polyvinylidene fluoride membrane (GE Healthcare Life Sciences, catalog #10600023), and probed using appropriate antibodies against PSD-95 (Abcam, catalog #ab18258, and 1:2000 dilution), SYP (Abcam, catalog #ab8049, and 1:1000 dilution), Iba-1 (Wako, catalog #016-20001, and 1:500 dilution) and GFAP (DAKO, catalog #z330s, and 1:2000 dilution), p-p38 (Santa Cruz, catalog #sc-166182, and 1:1000 dilution), p38 (Santa cruz, catalog #sc-535, and 1:1000 dilution), p-JNK (Santa cruz, catalog #sc-6254, and 1:1000 dilution), JNK (Santa cruz, catalog #sc-571, and 1:1000 dilution), p-ERK (Santa cruz, catalog #sc-7383, and 1:1000 dilution), and ERK (Santa cruz, catalog #sc-514302, and 1:1000 dilution), α7 nAChR (Alomone, catalog #ANC-007, and 1:1000 dilution) and β-actin (Sigma-Aldrich, catalog #A1978, and 1:2000 dilution). A Bio-Rad ChemicDoc imaging system (Bio-Rad) and Image J were used for image capturing and analysis, respectively.
It was next determined which MAPK signaling pathways were responsive to PAM neuroprotective effects against Tat-induced neuropathologies. Both CORT and HIP were analyzed for expression and phosphorylation of p38, JNK, and ERK.

Another assay deals with iTat mice. Briefly: Morris Water Maze (MWZ), training stage and probe test. It is filed as in vivo, mouse. Particulars: mouse, in vivo.
From the text: as §1
Open Field Test (OPT) and Morris Water Maze (MWZ) were performed sequentially using a computerized video tracking system (Anymaze, Stoelting) to determine the spontaneous locomotor activity and spatial learning and memory, respectively. For OPT, each mouse was allowed to move freely around a clear acrylic chamber (40.5×40.5×30.5 cm) for 10 minutes. Travel distance and maximum speed was determined by the AnyMaze software. For MWZ, a circle pool (1.2 m diameter) surrounded with a curtain was divided into four equal quadrants, and four signs with different shape were fixed onto the middle of each quadrant wall above the opaque water (24±1° C.). A hidden platform (1.5 cm below water surface) was put into a certain quadrant. Two stages consisting of 5-day training and probe test were carried out. In the training stage, four trials with a 15-20 minute interval were conducted in the every-day training, and for each trial mice were allowed to freely seek the platform within 90 seconds right after they were randomly put into one quadrant facing to the pool wall. If the mice found the platform within 90 seconds, 10 seconds would be added to allow them staying on the platform for memorizing, however, if failed, they would be directed toward the platform and allowed to stay on it for 15 seconds. Mice that were immobile or floating and unable to find the platform during the training stages were excluded from the experiments. Probe test was carried out on the next day following the 5-day training stage with a 60 seconds trial, and the platform was removed to prevent the mice from climbing onto it during the testing. One day after the behavioral tests, mice were euthanized and the brains were harvested.
To determine if α7 nAChR is involved in HAND, iTat mice were fed with Dox-containing food pellets for 7 days, […], and then subjected to open field test (OPT) for locomotor activity on day 14, and Morris Water Maze test (MWZ) for learning and spatial memory on day 15-20, and euthanized to harvest tissues on day 21 (FIG. 1A). Dox-containing food pellet feeding and PAM injection continued during the next 7 days of behavioral tests. To minimize the effects of injection on behavioral tests, PAM was injected 5 hours after each behavioral test.

On to `COc1cc(OC)c(NC(=O)Nc2cc(C)on2)cc1Cl` [PAM, 1-(5-chloro-2,4-dimethoxy-phenyl)-3-(5-methyl-isoxazol-3-yl)-urea], for which the “p38 and p-p38α” value in the assay on MAPK signaling pathways (CORT and HIP) is “increases of both p38 and p-p38α in both CORT and HIP”. In addition, the p-ERK result in the assay on MAPK signaling pathways (CORT and HIP, iTat and Wt mice) was “no differences of p-ERK in CORT and HIP of both iTat and Wt mice”. Moreover, the JNK result in the assay with MAPK signaling pathways (CORT, Wt and iTat mice) was “increases of JNK in CORT of Wt mice, increases of JNK in CORT of iTat mice”. In addition, the p-JNK result in the assay with MAPK signaling pathways (CORT, all mice) is “no differences of p-JNK in CORT of all mice”. Further, the “JNK and p-JNK” value with MAPK signaling pathways (HIP, all mice) was “increases of JNK and p-JNK in HIP of all mice”. Moreover, the ERK result with MAPK signaling pathways (HIP, iTat mice) was “decreases of ERK in HIP of iTat mice”. Besides, in the assay with iTat mice, the “MWZ probe test latency to platform” value was “decreases of latency to platform in both male iTat and Wt mice”; the “MWZ probe test platform entries, time at platform, distance to platform” value is recorded as “no differences”; the “MWZ probe test time at target quadrant and distance to target quadrant” value is recorded as “reversed by PAM treatment with the differences in distance to target quadrant”; the “MWZ training stage cumulative travel distance” value is “differences of cumulative travel times in male iTat mice on day 4 and female iTat mice on day 2”. In addition, in the assay on iTat mice, the “MWZ training stage escape latency and cumulative distance” value is reported as “only some improvements on male Wt mice”; the “MWZ training stage escape latency time” value is “differences of escape latency time in male iTat mice on day 4 and 5 and female iTat mice on day 2 and 4”.
